In general, pIC50 refers to the negative decadic logarithm of the IC50, by convention in mol/L. For orientation: ΔTm means the shift of the melting midpoint relative to a reference.

Data set [1] concerns MGC-803. The experiment in a line: Cytotoxicity against human MGC803 cells assessed as reduction in cell viability incubated for 48 hrs by MTT assay. The conditions noted are these: MGC-803, 48 h. It is filed as functional, cell-based.
Data set [2] relates to HeLa. Description: Cytotoxicity against human HeLa cells assessed as reduction in cell viability incubated for 48 hrs by MTT assay. It is filed as functional, cell-based. In general terms: Formazan colour is commonly taken as a measure of viable cells.
Data set [3] concerns A549. Description: Cytotoxicity against human A549 cells assessed as reduction in cell viability incubated for 48 hrs by MTT assay. The format is functional, cell-based. The conditions noted are these: A549, 48 h.
Data set [4] has as its system MCF7. The experiment in a line: Cytotoxicity against human MCF7 cells assessed as reduction in cell viability incubated for 48 hrs by MTT assay. The format is functional, cell-based. The conditions noted are these: MCF7, 48 h.
For data set [5], the system named is Calf thymus DNA. Description: Binding affinity to calf thymus DNA assessed as reduction in compound self absorption intensity at 1 x 10^-5 M by UV-Visible spectroscopy. It is filed as nucleic-acid assay. The conditions noted are these: Bos taurus.
Data set [6] deals with HeLa. Description: Cell cycle arrest in human HeLa cells assessed as accumulation at S phase at 7.5 uM incubated for 12 hrs by propidium iodide staining based flow cytometry (reference value: 27.8%). The format is functional. (In general: In flow cytometry, cells or beads pass a laser one at a time.)
Data set [7] deals with Calf thymus DNA. The experiment in a line: Binding affinity to calf thymus DNA assessed as induction of bathochromic shift of maximum absorption peaks at 1 x 10^-5 M by UV-Visible spectroscopy (reference value: 426 nanometer). It is filed as nucleic-acid assay. The conditions noted are these: Bos taurus.
In data set [8] the test system is Calf thymus DNA. Description: Binding affinity to calf thymus DNA assessed as change in melting temperature at 5 uM. It is filed as nucleic-acid assay. The conditions noted are these: Bos taurus.
Data set [9] is described as follows: Drug accumulation in lysosome of human HeLa cells at 5 uM incubated for 1 hr by lysososmal tracker DND-99 based confocal microscopy. The format is ADME, subcellular.
Data set [10] deals with HeLa. The experiment in a line: Cell cycle arrest in human HeLa cells assessed as accumulation at G2 phase at 2.5 uM incubated for 12 hrs by propidium iodide staining based flow cytometry (reference value: 7%). The format is functional.
Data set [11] concerns HeLa. Description: Cell cycle arrest in human HeLa cells assessed as accumulation at G1 phase at 2.5 uM incubated for 12 hrs by propidium iodide staining based flow cytometry (reference value: 65.2%). The format is functional.
The test system of data set [12] is HeLa. The experiment in a line: Cell cycle arrest in human HeLa cells assessed as accumulation at G2 phase at 7.5 uM incubated for 12 hrs by propidium iodide staining based flow cytometry (reference value: 7%). The format is functional.
For data set [13], the system named is Calf thymus DNA. The experiment in a line: Binding affinity to calf thymus DNA assessed as induction of ICD signal changes at 8 uM to 40 uM by CD spectroscopy. The format is nucleic-acid assay. The conditions noted are these: Bos taurus.
The subject of data set [14] is HeLa. Description: Cell cycle arrest in human HeLa cells assessed as accumulation at G1 phase at 7.5 uM incubated for 12 hrs by propidium iodide staining based flow cytometry (reference value: 65.2%). It is filed as functional.
For data set [15], the system named is Calf thymus DNA. Description: Binding affinity to calf thymus DNA assessed as increase in compound fluorescence intensity at 1 x 10^-5 M by fluorescence spectroscopy. It is filed as nucleic-acid assay. The conditions noted are these: Bos taurus.
Data set [16] concerns HeLa. The experiment in a line: Cell cycle arrest in human HeLa cells assessed as accumulation at S phase at 2.5 uM incubated for 12 hrs by propidium iodide staining based flow cytometry (reference value: 27.8%). The format is functional.
Data set [17] relates to Calf thymus DNA. Description: Binding affinity to calf thymus DNA assessed as induction of maximum emission band shift at 1 x 10^-5 M by fluorescence spectroscopy. It is filed as nucleic-acid assay. The conditions noted are these: Bos taurus.
Data set [18] relates to HeLa. Description: Cell cycle arrest in human HeLa cells assessed as accumulation at S phase at 5 uM incubated for 12 hrs by propidium iodide staining based flow cytometry (reference value: 27.8%). It is filed as functional.
Data set [19] has as its system Calf thymus DNA. Description: Binding affinity to calf thymus DNA at 1 x 10^-5 M by UV-Visible spectroscopy. The format is nucleic-acid assay. The conditions noted are these: Bos taurus.
Data set [20] has as its system HeLa. The experiment in a line: Cell cycle arrest in human HeLa cells assessed as accumulation at G1 phase at 5 uM incubated for 12 hrs by propidium iodide staining based flow cytometry (reference value: 65.2%). The format is functional.
Data set [21] concerns HeLa. The experiment in a line: Cell cycle arrest in human HeLa cells assessed as accumulation at G2 phase at 5 uM incubated for 12 hrs by propidium iodide staining based flow cytometry (reference value: 7%). It is filed as functional.
The test system of data set [22] is Calf thymus DNA. Description: Binding affinity to calf thymus DNA assessed as increase in intensity of positive band at 275 nm at 8 uM to 40 uM by CD spectroscopy. The conditions noted are these: Bos taurus. The format is nucleic-acid assay.
In data set [23] the test system is Calf thymus DNA. Description: Binding affinity to calf thymus DNA assessed as increase in […] shift at 1 x 10^-5 M by fluorescence spectroscopy (reference value: 542 nanometer). It is filed as nucleic-acid assay. The conditions noted are these: Bos taurus.
Data set [24] relates to Calf thymus DNA. The experiment in a line: Binding affinity to calf thymus DNA assessed as increase in compound fluorescence intensity at 1 x 10^-5 M up to 1.4 x 10^-4M DNA by fluorescence spectroscopy. It is filed as nucleic-acid assay. The conditions noted are these: Bos taurus.

pIC50: −log10 of the molar value. Active and inactive are the calls of the source. The calls are words filed in the database; no cut-off is given here.

On to `O=C1c2cccc3c(N4CCC[C@H]4CO)ccc(c23)C(=O)N1CCCNCCNCCCN1C(=O)c2cccc3c(N4CCC[C@H]4CO)ccc(c23)C1=O`, for which the pIC50 in [1] is 4.46; in [2] it was 4.07; in data set [3], 3.33; in [4], 3.83.

Turning to `O=C1c2cccc3c(N4CC[C@H](O)C4)ccc(c23)C(=O)N1CCCNCCNCCCN1C(=O)c2cccc3c(N4CC[C@H](O)C4)ccc(c23)C1=O`, the pIC50 in [1] was 5.22; in data set [2], 4.45; in data set [3], 4.08; in [4], 3.85.

Regarding `Cl.Cl.Cl.Cl.O=C1c2cccc3c(N4CCC(O)CC4)ccc(c23)C(=O)N1CCCNCCNCCCN1C(=O)c2cccc3c(N4CCC(O)CC4)ccc(c23)C1=O`, the outcome in [5], in data set [13], in data set [15] and in [22] was Active. Further, the Activity in data set [6] turned out to be 50.4%; in data set [7], 445 nm; in data set [10], 11.7%; in data set [11], 47.5%; in data set [12], 5.3%; in data set [14], 44.3%. Also, the Activity in data set [16] is listed as 40.8%; in [18], 45.2%; in data set [20], 44.9%; in data set [21], 9.9%. Moreover, the pIC50 was 6.22 in data set [1], 5.54 in data set [2], 4.34 in [3] and 4.43 in [4]. Further, in [8], the thermal shift (ΔTm) came out at 8.2 °C. Besides, in data set [9], the Drug uptake result was “Active”. Moreover, in data set [17], the outcome was inactive. This compound gave a K in data set [19] of 1.8 ×10⁵ /M.

In the case of `O=C1c2cccc3c(N4CCC[C@@H]4CO)ccc(c23)C(=O)N1CCCNCCNCCCN1C(=O)c2cccc3c(N4CCC[C@@H]4CO)ccc(c23)C1=O`, the pIC50 in data set [1] was 5.19; in data set [2] it was 4.05; in data set [3] it was 4.14; in [4], 4.03.

Turning to `O=C1c2cccc3c(N4CCC(CCO)CC4)ccc(c23)C(=O)N1CCCNCCNCCCN1C(=O)c2cccc3c(N4CCC(CCO)CC4)ccc(c23)C1=O`, the pIC50 was 4.04 in [1], 5.16 in data set [2], 4.36 in data set [3] and 4.96 in [4].

As to `O=C1c2cccc3c(N4CCC(CO)CC4)ccc(c23)C(=O)N1CCCNCCNCCCN1C(=O)c2cccc3c(N4CCC(CO)CC4)ccc(c23)C1=O`, the pIC50 was 5.69 in [1], 5.39 in [2], 4.86 in data set [3] and 4.64 in data set [4].

On to `CN(C)CCN1C(=O)c2cccc3cc(N)cc(c23)C1=O` [AMONAFIDE], for which the pIC50 in data set [1] was 5.49; in data set [2], 5.47; in data set [3], 5.70; in data set [4], 5.17.

Regarding `O=C1c2cccc3c(N4CC[C@@H](O)C4)ccc(c23)C(=O)N1CCCNCCNCCCN1C(=O)c2cccc3c(N4CC[C@@H](O)C4)ccc(c23)C1=O`, the negative-log IC50 (pIC50) in data set [1] was 5.03; in data set [2], 4.34; in data set [3], 4.64; in data set [4] it was 4.13.

Turning to `Cl.Cl.Cl.Cl.O=C1c2cccc3c(N4CCN(CCO)CC4)ccc(c23)C(=O)N1CCCNCCNCCCN1C(=O)c2cccc3c(N4CCN(CCO)CC4)ccc(c23)C1=O`, the outcome in data set [5], in data set [13], in [24] and in data set [22] was Active. For the same compound, the Activity is 53.87% in data set [6]; 10.9% in data set [10]; 528 nm in data set [23]; 48.9% in [11]; 3.7% in [12]; 42.6% in [14]. Also, the Activity in data set [16] amounted to 40.2%; in [18] it was 49.7%; in [20], 46%; in data set [21], 4.3%. The negative logarithm of the IC50 (pIC50) in data set [1] is 5.80; in [2], 5.56; in data set [3], 5.59; in data set [4], 4.70. In addition, in [7], the result was inactive. In addition, the ΔTm in data set [8] turned out to be 14.3 °C. Moreover, in data set [9], the Drug uptake entry is “Active”. Also, the K in [19] is 2.6 ×10⁵ /M.

The values are drawn from ChEMBL document CHEMBL4184215, “Lysosomes-targeting imaging and anticancer properties of novel bis-naphthalimide derivatives” (Bioorg Med Chem Lett, 2018).
